Measured values as given in ChEMBL document CHEMBL1201862, “PubChem BioAssay data set” (2004).
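Test compounds were applied to cells in 96-well plates for 48 hours at 5 doses. Abbreviation: GI50, concentration required for 50% inhibition of growth.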 Activity calls are given as the source filed them. Cut-off read from the data, not from the text of the source: active = GI50 up to about 1.1 µM and inactive = higher.

Tests used:
Assay in all cases: NCI anticancer screen, dose series, 48 h
IGROV-1 = system: IGROV-1
SNB-75 = system: SNB-75
OVCAR-3 = system: OVCAR-3
UACC-257 = system: UACC-257
HCC 2998 = system: HCC 2998
RXF 393 = system: RXF 393
HL-60 = system: HL-60
SF-539 = system: SF-539
CAKI-1 = system: CAKI-1
COLO 205 = system: COLO 205
SK-MEL-28 = system: SK-MEL-28
ACHN = system: ACHN
UACC-62 = system: UACC-62
CCRF-CEM = system: CCRF-CEM
SK-MEL-2 = system: SK-MEL-2
SK-MEL-5 = system: SK-MEL-5
SF-295 = system: SF-295
HOP-62 = system: HOP-62
SR = system: SR

Measured: GI50

C=CCNC(=S)N/C=C1\C(=O)Oc2ccccc2C1=O
inactive: IGROV-1 41.6 µM | SNB-75 18.7 µM | OVCAR-3 82 µM | UACC-257 > 100 µM | HCC 2998 68.4 µM | RXF 393 19.3 µM | HL-60 > 100 µM | SF-539 55.5 µM | CAKI-1 22.2 µM | COLO 205 > 100 µM | SK-MEL-28 > 100 µM | ACHN 32.1 µM | UACC-62 46.3 µM | CCRF-CEM > 100 µM | SK-MEL-2 13.2 µM | SK-MEL-5 43.8 µM | SF-295 > 100 µM

CCOC(=O)C(C(=O)OCC)=C1C=C(c2ccccc2)c2ccccc21
inactive: IGROV-1 > 100 µM | HOP-62 13.3 µM | SNB-75 45.7 µM | OVCAR-3 > 100 µM | UACC-257 73.1 µM | HCC 2998 7.29 µM | RXF 393 40.2 µM | HL-60 20.5 µM | SF-539 62.7 µM | COLO 205 54.2 µM | SK-MEL-28 > 100 µM | ACHN 41 µM | UACC-62 > 100 µM | CCRF-CEM 27.5 µM | SK-MEL-2 > 100 µM | SK-MEL-5 31.1 µM | SF-295 31.2 µM

c1ccc2c(c1)CCCc1cc3ccccc3nc1-2
inactive: IGROV-1 > 100 µM | HOP-62 > 100 µM | SNB-75 75.3 µM | OVCAR-3 > 100 µM | UACC-257 54.8 µM | HCC 2998 > 100 µM | SF-539 > 100 µM | CAKI-1 > 100 µM | COLO 205 29.9 µM | SK-MEL-28 > 100 µM | ACHN > 100 µM | UACC-62 > 100 µM | CCRF-CEM 94.6 µM | SK-MEL-2 > 100 µM | SK-MEL-5 92.5 µM | SF-295 > 100 µM

C[C@]12CCC(=O)C(O)=C1CC[C@@H]1C2CC[C@]2(C)Nc3c(cnn3-c3ccccc3)CC12 (some centres not stated)
inactive: IGROV-1 > 100 µM | HOP-62 > 100 µM | SNB-75 > 100 µM | OVCAR-3 54.8 µM | UACC-257 39 µM | HCC 2998 > 100 µM | RXF 393 55.1 µM | HL-60 23.8 µM | SF-539 67.6 µM | CAKI-1 56.9 µM | SK-MEL-28 > 100 µM | ACHN > 100 µM | UACC-62 77.6 µM | CCRF-CEM 37.2 µM | SK-MEL-2 > 100 µM | SK-MEL-5 38.8 µM | SF-295 52.7 µM

NC(CCCNCc1ccccc1O)C(=O)O (configuration not stated)
inactive: IGROV-1 > 100 µM | HOP-62 > 100 µM | SNB-75 > 100 µM | OVCAR-3 > 100 µM | UACC-257 > 100 µM | HL-60 > 100 µM | SF-539 > 100 µM | CAKI-1 > 100 µM | COLO 205 > 100 µM | SK-MEL-28 > 100 µM | ACHN > 100 µM | UACC-62 > 100 µM | CCRF-CEM > 100 µM | SK-MEL-2 > 100 µM | SK-MEL-5 > 100 µM | SF-295 > 100 µM

O=C1C2CCCCC2C(=O)N1n1c(-c2ccccc2)n[nH]c1=O (configuration not stated)
inactive: IGROV-1 > 100 µM | HOP-62 > 100 µM | SR > 100 µM | SNB-75 > 100 µM | OVCAR-3 > 100 µM | UACC-257 > 100 µM | HCC 2998 > 100 µM | RXF 393 > 100 µM | SF-539 > 100 µM | CAKI-1 > 100 µM | COLO 205 > 100 µM | ACHN > 100 µM | UACC-62 > 100 µM | CCRF-CEM > 100 µM | SK-MEL-2 > 100 µM | SK-MEL-5 > 100 µM | SF-295 > 100 µM

Cc1ccc(-c2cc(=O)c3cc(C)c(C)c(C(=O)O)c3o2)cc1N
inactive: IGROV-1 > 100 µM | SNB-75 > 100 µM | OVCAR-3 > 100 µM | UACC-257 > 100 µM | RXF 393 > 100 µM | SF-539 > 100 µM | CAKI-1 > 100 µM | COLO 205 > 100 µM | SK-MEL-28 > 100 µM | ACHN > 100 µM | UACC-62 > 100 µM | CCRF-CEM > 100 µM | SK-MEL-2 > 100 µM | SK-MEL-5 > 100 µM | SF-295 > 100 µM

O=C(NCCO)c1ccc([N+](=O)[O-])cc1
inactive: IGROV-1 > 100 µM | HOP-62 > 100 µM | SNB-75 > 100 µM | OVCAR-3 > 100 µM | UACC-257 > 100 µM | HCC 2998 > 100 µM | RXF 393 > 100 µM | HL-60 > 100 µM | SF-539 > 100 µM | CAKI-1 > 100 µM | COLO 205 > 100 µM | SK-MEL-28 > 100 µM | UACC-62 > 100 µM | CCRF-CEM > 100 µM | SK-MEL-2 > 100 µM | SK-MEL-5 > 100 µM | SF-295 > 100 µM

Cc1cc(N(CCC#N)CCC#N)ccc1/C=C(\NC(=O)/C=C/c1ccccc1)NC(=O)Nc1ccccc1C
inactive: IGROV-1 68.4 µM | OVCAR-3 > 100 µM | UACC-257 > 100 µM | HCC 2998 > 100 µM | RXF 393 17.2 µM | HL-60 > 100 µM | SF-539 38.1 µM | CAKI-1 69.7 µM | COLO 205 > 100 µM | SK-MEL-28 > 100 µM | ACHN 55.3 µM | UACC-62 46.1 µM | CCRF-CEM > 100 µM | SK-MEL-2 38.7 µM | SK-MEL-5 61 µM | SF-295 25.4 µM

CC(=O)C1C(c2ccccc2)C2(C)OC(=O)C(C#N)C12C (configuration not stated)
inactive: IGROV-1 > 100 µM | SNB-75 > 100 µM | OVCAR-3 > 100 µM | RXF 393 > 100 µM | HL-60 > 100 µM | SF-539 > 100 µM | COLO 205 > 100 µM | SK-MEL-28 > 100 µM | ACHN > 100 µM | UACC-62 > 100 µM | CCRF-CEM > 100 µM | SK-MEL-2 > 100 µM | SK-MEL-5 > 100 µM | SF-295 > 100 µM

C=CC(=O)Nc1ccccc1CC(c1c[nH]c2ccccc12)c1c[nH]c2ccccc12
inactive: IGROV-1 18.2 µM | HOP-62 19.6 µM | SNB-75 14.1 µM | OVCAR-3 17.7 µM | UACC-257 18.9 µM | HCC 2998 18.7 µM | RXF 393 > 10 µM | SF-539 21.3 µM | CAKI-1 18.2 µM | COLO 205 16.7 µM | SK-MEL-28 17.8 µM | UACC-62 16.6 µM | CCRF-CEM 19.9 µM | SK-MEL-2 17.7 µM | SK-MEL-5 17.6 µM | SF-295 22.1 µM

O=C1NC2(CCCCCC2)C2CCCCCCC12O (configuration not stated)
inactive: IGROV-1 > 100 µM | HOP-62 > 100 µM | SR > 100 µM | SNB-75 > 100 µM | OVCAR-3 > 100 µM | UACC-257 > 100 µM | RXF 393 > 100 µM | HL-60 > 100 µM | SF-539 > 100 µM | CAKI-1 > 100 µM | COLO 205 > 100 µM | SK-MEL-28 > 100 µM | ACHN > 100 µM | UACC-62 > 100 µM | CCRF-CEM > 100 µM | SK-MEL-2 > 100 µM | SK-MEL-5 > 100 µM | SF-295 > 100 µM

Brc1cccc(/C=N/C23CC4CC(CC(C4)C2)C3)c1
inactive: IGROV-1 > 100 µM | HOP-62 > 100 µM | SNB-75 > 100 µM | OVCAR-3 > 100 µM | UACC-257 > 100 µM | HCC 2998 > 100 µM | RXF 393 > 100 µM | HL-60 > 100 µM | SF-539 > 100 µM | CAKI-1 > 100 µM | COLO 205 > 100 µM | SK-MEL-28 > 100 µM | ACHN > 100 µM | UACC-62 > 100 µM | CCRF-CEM > 100 µM | SK-MEL-2 > 100 µM | SK-MEL-5 > 100 µM | SF-295 > 100 µM

COc1ccc(O)cc1C(O)c1ccccc1 (configuration not stated)
inactive: IGROV-1 > 100 µM | HOP-62 > 100 µM | SNB-75 > 100 µM | OVCAR-3 > 100 µM | UACC-257 > 100 µM | HCC 2998 > 100 µM | RXF 393 > 100 µM | HL-60 > 100 µM | SF-539 > 100 µM | CAKI-1 > 100 µM | COLO 205 > 100 µM | SK-MEL-28 > 100 µM | ACHN > 100 µM | UACC-62 > 100 µM | CCRF-CEM > 100 µM | SK-MEL-2 > 100 µM | SK-MEL-5 > 100 µM | SF-295 > 100 µM

C=CCC1=C(C)C[C@@H]2CCC(=O)C=C12
inactive: IGROV-1 > 100 µM | HOP-62 > 100 µM | SNB-75 > 100 µM | OVCAR-3 > 100 µM | UACC-257 > 100 µM | RXF 393 > 100 µM | HL-60 > 100 µM | SF-539 > 100 µM | CAKI-1 > 100 µM | COLO 205 > 100 µM | SK-MEL-28 > 100 µM | ACHN > 100 µM | UACC-62 > 100 µM | CCRF-CEM > 100 µM | SK-MEL-2 > 100 µM | SK-MEL-5 > 100 µM | SF-295 > 100 µM

CC(=O)SC(SC(C)=O)SC(C)=O
inactive: IGROV-1 > 100 µM | HOP-62 > 100 µM | SNB-75 60.3 µM | OVCAR-3 91 µM | UACC-257 55 µM | HCC 2998 > 100 µM | RXF 393 > 100 µM | HL-60 51.3 µM | SF-539 > 100 µM | COLO 205 27.3 µM | SK-MEL-28 > 100 µM | ACHN > 100 µM | UACC-62 84.1 µM | CCRF-CEM 22.5 µM | SK-MEL-2 > 100 µM | SK-MEL-5 > 100 µM

O=CC1CCC=CC1NC(=O)OCc1ccccc1 (configuration not stated)
inactive: IGROV-1 > 100 µM | HOP-62 > 100 µM | SR 30.7 µM | SNB-75 29.2 µM | UACC-257 > 100 µM | RXF 393 54.6 µM | HL-60 7.14 µM | SF-539 23 µM | CAKI-1 34.4 µM | COLO 205 > 100 µM | SK-MEL-28 > 100 µM | ACHN > 100 µM | UACC-62 42.5 µM | CCRF-CEM 25.9 µM | SK-MEL-2 38.5 µM | SK-MEL-5 51.9 µM | SF-295 30.5 µM
